Data set [1] can be described thus: Molar enthalpy of transition or fusion. The settings on record: DSC.
For data set [2] the following is noted: DTA.

Two molecules from the NIST ThermoML archive (doi:10.1016/j.jct.2016.11.022) can be followed below.

± gives the expanded uncertainty stated by the source.

Take `CC(N)=O` [ethanamide]: the figures for the “Molar enthalpy of transition or fusion” value in data set [1] (Crystal) and in data set [1] (Metastable crystal) were 3.26 ± 0.335 kcal/mol and 2.78 ± 0.287 kcal/mol, respectively. The Normal melting temperature in data set [2] (Crystal) was 80.62 ± 1.1 °C; in data set [2] (Metastable crystal), 70.14 ± 1.1 °C.
Regarding `CCCCCCCCCCCCCCCCCC(=O)O` [octadecanoic acid], the “Molar enthalpy of transition or fusion” value in data set [1] (Crystal) stood at 14.4 ± 1.46 kcal/mol. Moreover, in data set [2] (Crystal), the Normal melting temperature stood at 69.47 ± 1.1 °C.
